The text below walks through data of article PMC6530537, “Efficient development of stable and highly functionalised peptides targeting the CK2α/CK2β protein–protein interaction” (Chemical Science, 2019).

Data set [1] concerns the target T1, CK2α (Homo sapiens, UniProt P68400, K74A/K75A/K76A/R21S).
T1 construct: CK2α_KA (residues 2 -329) contained four; His6 (N, cleaved yes); made in house; host or cells: Escherichia coli BL21(DE3)
T1 sequence (P68400 2-329 R21S/K74A/K75A/K76A): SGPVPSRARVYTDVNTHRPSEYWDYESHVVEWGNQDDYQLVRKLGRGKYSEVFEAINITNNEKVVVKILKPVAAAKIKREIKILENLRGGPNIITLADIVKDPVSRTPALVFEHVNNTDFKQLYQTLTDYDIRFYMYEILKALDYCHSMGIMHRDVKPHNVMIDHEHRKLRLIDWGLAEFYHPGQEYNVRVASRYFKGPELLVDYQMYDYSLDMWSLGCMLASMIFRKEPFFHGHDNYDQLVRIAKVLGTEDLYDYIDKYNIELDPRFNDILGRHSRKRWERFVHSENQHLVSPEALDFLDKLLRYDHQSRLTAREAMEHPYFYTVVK
Kind of data set: Isothermal titration calorimetry, direct binding to CK2α. Conditions: for Kd: ITC, 25°C, CK2α_KA, Tris 200 mM, NaCl 300 mM, 10% DMSO, single site binding model. How it is done:
lysed using a high-pressure homogeniser.
The soluble supernatant was applied on a […]
mM NaCl, 1mM DTT, 1mM EDTA, pH 8.5). 100µL of the precision protease was loaded onto the […]
Pure protein was concentrated to 15 mg/mL and flash frozen in liquid N2. […]
1.4.3. Isothermal Calorimetry Titration
1.4.3.1. Direct binding assay
DMSO) and concentrated to 20-50 μM. Compounds in 100× stock solutions were diluted into the […]
Control titrations were performed, and the […]

A further data set concerns HCT116 cells. The data set is described as follows: cells. The class given is cell-based, human. As to conditions: 24 h. The procedure:
(§1) page 47: 1.5. Biological experimental 1.5.1. […] The experiment was performed in duplicates. 1.5.2. […] 1.5.3. […] 46

For data set [2], the system named is U2OS cells. The data set is described as follows: cells. Conditions: 24 h. In kind it is cell-based, human. How it is done: as §1
For data set [3], the system named is U2OS cells. Kind of data set: Cell viability / apoptosis assay (CytoTox-Glo), 4 hour treatment. As to conditions: after 4 hours. In kind it is cell-based, human.
Data set [4] concerns CK2β localisation in U2OS cells. The data set is described as follows: Immunofluorescence imaging of subcellular localisation of CK2β. In kind it is cell-based, human. As to conditions: 30 μM, 15 minute incubation, CK2β antibody. How it is done:
(§2) CellCarrier Ultra) in 40 μL of growth medium.
(§3) 1.5.5. Co-localisation experiments […]
(§4) confocal microscope with a 40X water immersion objective. Images were acquired with excitation at […]
(§5) green, red and blue channel respectively.
(§6) The following primary antibodies were used:
(§7) Antibody Organelle stained Supplier and catalogue Working concentration […]
(§8) Calnexin Endoplasmic reticulum Invitrogen, PA5-34665 1:750
(§9) Hoechst nuclei stain was used to a working concentration of 1:5000. […]
(§10) concentration 4%). Cells were fixed for 15 minutes, washed with PBS (3x) and blocked with 3% BSA + 0.1 % […] for 5 minutes. The blocking solution was then removed and 40 μL of the primary antibodies in BSA added. The plate was stored in the dark, at 4 °C overnight. The primary antibodies were washed with PBS (3x) and 40 μL of the secondary antibodies and Hoechst nuclei stain in BSA added. The plate was kept at 4 °C for 1 hour, washed with PBS (3x) and imaged as described above. Images were analysed using Fiji (ImageJ) software.

The test system of another data set is U2OS and HCT116 cells. Conditions: proliferation, growth rate, viability (Fig. S5-S7).
Data set [5] concerns the target T2, CK2α (Homo sapiens, UniProt P68400).
T2 construct: CK2α_WT was used (residues 2-329); His6 (N, cleaved yes); made in house; host or cells: Escherichia coli BL21(DE3)
T2 sequence (P68400 2-329): T1 sequence (P68400 2-329 R21S/K74A/K75A/K76A) with S20R, A73K, A74K, A75K
Kind of data set: ADP-Glo kinase assay, β-independent substrate peptide RRRADDSDDDD
In kind it is biochemical. As to conditions: 50 nM CK2α_WT, 25 μM ATP, 50 μM substrate, 25 °C, 120 min. How it is done: (§11) We then wanted to investigate whether the peptides would be able to inhibit the binding of the β subunit to the α subunit. To this end, the binding affinity of the regulatory β subunit for the catalytic domain was determined via ITC (Kd 9 nM). This was then repeated in the presence of 100 μM P1-C4 and P2-C4 (ESI, Table S4 ^†). […] As one of the key roles of CK2β is to recruit substrates to the kinase, the effect of PPI inhibition on substrate phosphorylation was studied using CK2β dependent and independent substrates. […] It should be noted that the kinase assay was performed using the pre-formed CK2α/β complex as the ability of CK2α to phosphorylate eIF2β requires the presence of the CK2β subunit.
(§12) The kinase assays were performed using the ADP-Glo™ kinase assay kit (Promega). 50 nM CK2α_WT was incubated in the kinase reaction buffer (40 mM Tris pH 7.5, 200 mM NaCl, 20 mM MgCl2, 0.1 mg/mL BSA, 25 μM ATP, 50 μM substrate peptide (RRRADDSDDDD, Enzo Life Sciences […]
(§13) Inc. or eIF2β peptide […]), 5% (v/v) DMSO) in the presence of different concentrations of the inhibitor at 25 °C for 120 min. […] The luminescence was recorded using a PHERAstar FS plate reader (BMG LABTECH) with an integration time of 1 sec.
(§14) Percentage inhibition was calculated relative to a DMSO control after subtraction of the measurement for basal ATPase activity in the absence of substrate. […]

The target of the next data set is T3, CK2α/CK2β interaction (Homo sapiens, UniProt P68400).
T3 construct: CK2α_WT was used (residues 2-329); His6 (N, cleaved yes); made in house; host or cells: Escherichia coli BL21(DE3)
T3 sequence (P68400 2-329): T1 sequence (P68400 2-329 R21S/K74A/K75A/K76A) with S20R, A73K, A74K, A75K
Kind of data set: ITC competition assay: CK2β binding to CK2α alone and in the presence of peptide. As to conditions: 25°C, 100 μM peptide, preliminary assay. How it is done:
as §11
1.4.3.2. Competition assay […]
concentrated to 4-6 μM. CK2β (9.3 mg/mL, 20 mM Tris pH 8.5, 500 mM NaCl) was diluted in Tris buffer (200 mM, NaCl, 300 mM, 10% DMSO) and concentrated to 40 μM. In a typical experiment, […]
performed at 150 second intervals. The syringe was loaded with CK2β and rotated at 750 rpm. The same experiment was repeated in the presence of the peptide s: compounds at 1 mM in DMSO were added to the solutions of CK2α and CK2β (prepared as described above) to a final concentration of […]
binding model using Origin software. […]
(CK2β-RAD) 200s, baseline 120s (assay buffer), control loading 200s (RAD), baseline 150s (assay buffer), ligand binding (association) 400s (CK2α K74A and CAM7117) and ligand dissociation 600s (assay buffer), followed by regeneration and next cycles. […]
GraphPad. The results are the average of 4 repeats and error shown as SEM.
Figure S10- Sensorgrams of the BLI competition experiments to assess the ability of P2-C4 to […] the CK2α/CK2β-RAD complex. a) Concentration of peptide ranging from 10 to 0.025 μM and 0 μM. b) Concentration of peptide ranging from 10 to 5 nM and 0 nM.
(1 picture or pasted object on this page, not shown here)

The next data set concerns the target T4, CK2α/β holoenzyme (Homo sapiens, UniProt P68400).
T4 construct: CK2α_WT was used (residues 2-329); His6 (N, cleaved yes); made in house; host or cells: Escherichia coli BL21(DE3)
T4 sequence (P68400 2-329): T1 sequence (P68400 2-329 R21S/K74A/K75A/K76A) with S20R, A73K, A74K, A75K
Kind of data set: ADP-Glo kinase assay, CK2β-dependent substrate eIF2β, pre-formed CK2α/β complex. In kind it is biochemical. As to conditions: 50 nM CK2α_WT + 50 nM CK2β_WT pre-formed, 25 μM ATP, 50 μM eIF2β peptide, 25 °C, 120 min, at least three independent repeats, read-out: IC50, inhibition of phosphorylation of the CK2β-dependent substrate eIF2β. The procedure: as §11, §12, §13, §14

The next data set concerns the target T5, CK2α/CK2β-RAD complex (Homo sapiens, UniProt P68400, K74A/K75A/K76A/R21S).
T5 construct: CK2α_KA (residues 2 -329) contained four; His6 (N, cleaved yes); made in house; host or cells: Escherichia coli BL21(DE3)
T5 sequence (P68400 2-329 R21S/K74A/K75A/K76A): T1 sequence (P68400 2-329 R21S/K74A/K75A/K76A)
Kind of data set: Competition Bio-Layer Interferometry (BLI): formation of the CK2α/CK2β-RAD complex. The class given is binding. As to conditions: biotin-labelled CK2β-RAD 50 nM on streptavidin sensors, CK2α 50 nM, 20mM TRIS pH 8.0, 350mM NaCl, 0.5% Tween, average of 4 repeats, SEM, read-out: IC50, prevention of formation of the CK2α/CK2β-RAD complex. The procedure:
Octet RED96 (ForteBio) instrument was used for BLI analysis of biotin-labelled CK2β-RAD/CAM7117 interactions. Experiments were performed using SA-Streptavidin biosensors (ForteBio), which were regenerated with 10mM glycine, pH 1.7. 20mM TRIS pH 8.0, 350mM NaCl, 0.5% Tween was used as the assay buffer. For binding assays pre-wet sensors were loaded with biotin labelled CK2β-RAD protein at 50 nM in assay buffer. CK2α K74A was prepared at 50 nM in assay buffer and dilution series (from 0 to 10 μM) of CAM7117 were prepared in the assay buffer. The following experimental setup was used for each measurement cycle: regeneration 3× 5s, baseline 120s, sample loading (CK2β-RAD) 200s, baseline 120s (assay buffer), control loading 200s (RAD), baseline 150s (assay buffer), ligand binding (association) 400s (CK2α K74A and CAM7117) and ligand dissociation 600s (assay buffer), followed by regeneration and next cycles. During the control loading stage all […]
Regenerated SA-Streptavidin biosensors loaded with biotin labelled RAD were used to perform referencing. Data was processed using ForteBio Analysis 7.1 software and IC50 was calculated using GraphPad. The results are the average of 4 repeats and error shown as SEM. […]

In data set [6] the test system is U2OS cells. In kind it is cell-based, human. How it is done:
as §2, §3, §4, §5, §6, §7, §8, §9, §10

Where a chain is given by its changes, count along the chain named.

Procedure for U2OS and HCT116 cells: All cell lines used were supplied by AstraZeneca cell bank as mycoplasma free. U2OS bone
osteosarcoma and HCT116 colon carcinoma cells were maintained in RPMI -1640 (1x, Sigma Aldrich,
R0883) supplemented with 2 mM L-glutamine (Gibco, 25030-149) and fetal bovine serum (FBS, Gibco
Life Technologies, 10270-106) at a final concentration of 10%, hereafter known as growth medium. All
cells were grown at 37°C/5% CO2 in a humidified environment and all the assays were performed
using these culturing conditions.
HCT116 cells were seeded at 2000 cells per well into two flat-bottomed 384-well plates (PerkinElmer
CellCarrier Ultra) in 40 μL of growth medium. After 24 hours, the peptides dissolved in DMSO (10 mM)
were added to the cells (to final concentrations of 100, 75, 50, 32, 25, 16, 10, 7.7, 5, 3.2, 0 μM) using
HP Tecan dispenser and DMSO normalised to a final concentration of 1% (v/v). Cells were then
incubated in the presence of the compounds for 4 days and the rate of growth monitored with
IncuCyte Zoom (plate day 4). […]
inhibition was calculated relative to DMSO controls, normalised against day 0 and GI50 values were
calculated using Graphpad Prism. […]
minutes at room temperature, luminescence was read on a multimode plate reader (EnVision, […]
dead cells was measured. […]
calculated by subtracting the luminescent signal resulting from experimental cell death from total
luminescence death. […]

In turn, `CC(=O)NCC(=O)N[C@H]1Cn2cc(nn2)-c2cc(C(=O)NCCCCCC(=O)NCCCCCC(=O)N[C@H](CCCNC(=N)N)C(=O)N[C@H](CCCNC(=N)N)C(=O)N[C@H](CCCNC(=N)N)C(N)=O)cc(c2)-c2cn(nn2)C[C@@H](C(=O)NCC(=O)NCC(N)=O)NC(=O)[C@H](Cc2c[nH]cn2)NC(=O)[C@H](Cc2c[nH]c3ccccc23)NC(=O)[C@H](CCCCN)NC(=O)[C@H](Cc2ccccc2)NC(=O)CNC(=O)[C@H](Cc2ccc(O)cc2)NC(=O)[C@H](CC(C)C)NC(=O)[C@H](CCCNC(=N)N)NC1=O` [CAM7117] displayed a dissociation constant Kd at CK2α [1] of 200 nM. Besides, the concentration for 50% growth inhibition (GI50) turned out to be 76000 ± 4000 nM with HCT116 cells and 32000 ± 2000 nM with U2OS cells [2]. Besides, in the data set with U2OS cells [3], the Induction of apoptosis entry was “induced apoptosis”. For the same compound, the “Nuclear localisation of CK2β after treatment” value in data set [4] is reported as “little or no fluorescence associated with the CK2β antibody was found in the nucleus”.
Take `C#Cc1cc(C#C)cc(C(=O)NCCCCCC(=O)NCCCCCC(=O)N[C@H](CCCNC(=N)N)C(=O)N[C@H](CCCNC(=N)N)C(=O)N[C@H](CCCNC(=N)N)C(N)=O)c1` [F1C4]: the “Biological effects in cancer cells” value with U2OS and HCT116 cells is listed as “No biological effects”.
Regarding `CC(=O)NCC(=O)N[C@H]1Cn2cc(nn2)-c2cc(C(=O)O)cc(c2)-c2cn(nn2)C[C@@H](C(=O)NCC(=O)NCC(N)=O)NC(=O)[C@H](Cc2c[nH]cn2)NC(=O)[C@H](Cc2c[nH]c3ccccc23)NC(=O)[C@H](CCCCN)NC(=O)[C@H](Cc2ccccc2)NC(=O)CNC(=O)[C@H](Cc2ccc(O)cc2)NC(=O)[C@H](CC(C)C)NC(=O)[C@H](CCCNC(=N)N)NC1=O` [P2-C4], the “Effect on phosphorylation of a β-independent substrate peptide (RRRADDSDDDD)” value on CK2α [5] was “did not affect the phosphorylation”. For the same compound, the “Binding of CK2β to CK2α in the presence of peptide” value at CK2α/CK2β interaction is “no binding of CK2β to CK2α was detected”. Further, the “Improvement in Kd of the constrained peptide compared to the linear variant P2” value at CK2α [1] (ITC Kd, P2-C4 vs P2) is 300 fold. Moreover, binding at CK2α [1] was put at a Kd of 150 nM. In addition, the IC50 came to 206 ± 29 nM on CK2α/β holoenzyme and 150 ± 19 nM on CK2α/CK2β-RAD complex.
Take “GXF2C4RLYGFKWHXF2C4GG (sidechain bridge or staple) [P2-F2C4, FITC-labelled analogue of CAM7117]”: the “Cellular uptake / cell permeability” value with U2OS cells [6] is “successfully internalised”.
